According to US12121581B2, “Method of photodynamic therapy” (OSLO UNIVERSITETSSYKEHUS HF, priority 2018, dated 2024):

Assays:
U87 cells = assay: LUMIBLAST cell viability, MTT assay; format: cell-based
Description: Efficiency of the luminol derivatives was investigated. The initial derivative tested was HD92 (also referred to herein as “AP47”). U87 cells were inoculated in 96 well plates. The cells were then divided into the following groups (at least 6 parallels per group): CTRL (media only), ALA CTRL (2 mM), HD92 CTRL (500 μM) and the LUMIBLAST group (2 mM 5-ALA and 500 μM HD92). Correspondingly, MCF7 cells were inoculated in 96 well plates and left to grow overnight. The cells were then divided into the following groups (at least 6 parallels per group): CTRL (media only), Hypocrellin A CTRL (HYPA 7 μM), HD92 CTRL (500 μM) and the LUMIBLAST group (7 μM HYPA and 500 μM HD92). These four groups were incubated in media with and without 10 μM FeSO4 in the case of experiments with HYPA. […] In brief, all cell groups were incubated with 0.5 mg/mL MTT for 3 hours. The MTT media were subsequently replaced with DMSO (100 μL) to solubilise the formazan. The wells were read for absorbance at 562 nm using a Tecan Spark OM plate reader. The cytotoxicity was determined as the percentage of control (media only) absorbance following subtraction of blank values from wells without cells.
MCF7 and U87 cells were inoculated in 96 well plates. The cells were then divided into the following groups (at least 6 parallels per group): CTRL (media only), HYPA CTRL (3 μM), DZ168 CTRL (5, 10, 20 and 30 μM), and the LUMIBLAST combinations (3 μM HYPA+DZ168 5-30 μM). These cell group incubations were also repeated in media containing 100 μM CuSO4. […]
MCF7 and U87 cells were inoculated in 96 well plates. The cells were then divided into the following groups (at least 6 parallels per group):CTRL (media only), HYPA CTRL (5 μM), DZ167 CTRL (25-200 μM), and the LUMIBLAST combinations (5 μM HYPA+DZ167 25-200 μM). These incubations were performed in media containing 50 μM CuSO4. […]
The subcellular localisation of cercosporin together with that of synthesised derivatives DZ203 (short alkyl linker) and DZ196 (oligoPEG linker) was investigated. U87 cells were inoculated in 96 well plates. The cells were then divided into the following groups (at least 6 parallels per group). CTRL (media only), Cercosporin CTRL (3 μM), DZ203 CTRL (200 μM), DZ196 CTRL (500 μM) and the LUMIBLAST combinations (3 μM cercosporin+DZ203 200 μM or 3 μM cercosporin DZ196 500 μM). […]

MCF7 cells = assay: LUMIBLAST cell viability, MTT assay; format: cell-based
Description: (§1) Efficiency of the luminol derivatives was investigated. The initial derivative tested was HD92 (also referred to herein as “AP47”). U87 cells were inoculated in 96 well plates. The cells were then divided into the following groups (at least 6 parallels per group): CTRL (media only), ALA CTRL (2 mM), HD92 CTRL (500 μM) and the LUMIBLAST group (2 mM 5-ALA and 500 μM HD92). Correspondingly, MCF7 cells were inoculated in 96 well plates and left to grow overnight. The cells were then divided into the following groups (at least 6 parallels per group): CTRL (media only), Hypocrellin A CTRL (HYPA 7 μM), HD92 CTRL (500 μM) and the LUMIBLAST group (7 μM HYPA and 500 μM HD92). These four groups were incubated in media with and without 10 μM FeSO4 in the case of experiments with HYPA. Following incubation of the cells with their respective drug strategies overnight (˜20 hours), the cell groups were tested for their viability using a standard MTT assay. In brief, all cell groups were incubated with 0.5 mg/mL MTT for 3 hours. The MTT media were subsequently replaced with DMSO (100 μL) to solubilise the formazan. The wells were read for absorbance at 562 nm using a Tecan Spark OM plate reader. The cytotoxicity was determined as the percentage of control (media only) absorbance following subtraction of blank values from wells without cells.
MCF7 and U87 cells were inoculated in 96 well plates. The cells were then divided into the following groups (at least 6 parallels per group): CTRL (media only), HYPA CTRL (3 μM), DZ168 CTRL (5, 10, 20 and 30 μM), and the LUMIBLAST combinations (3 μM HYPA+DZ168 5-30 μM). These cell group incubations were also repeated in media containing 100 μM CuSO4. Following incubation of the cells with their respective drug strategies overnight (˜20 hours), the cell groups were tested for their viability using the MTT assay.

[1] = tested on: MDA-MB-231 breast carcinoma cells; assay: LUMIBLAST cell viability, MTT assay; format: cell-based; conditions: 1.2 mM 5-ALA + DZ203 400 μM, 100 μM CuSO4, ~20 hours
Description: as §1
MDA-MB-231 cells were inoculated in 96 well plates. […]

cells = conditions: luminol together with transferrin-haematoporphyrin conjugates; cited from earlier work

Compound: O=C(CCCCC[P+](c1ccccc1)(c1ccccc1)c1ccccc1)Nc1cccc2c(=O)[nH][nH]c(=O)c12.[Br-] [AP47, (6-((1,4-dioxo-1,2,3,4-tetrahydrophthalazin-5-yl)amino)-6-oxohexyl)triphenylphosphonium bromide]
- combinatory cytotoxic effect (MTT viability) (U87 cells; U87, 2 mM 5-ALA and 500 μM HD92, ~20 hours, relative to HD92 control): combinatory cytotoxic effect is profoundly significant
- toxicity of the derivative alone (MTT viability) (U87 cells; U87, HD92 CTRL 500 μM, ~20 hours): sub-toxic but very near the margins of chemical toxicity
- combinatory cytotoxic effect (MTT viability) (MCF7 cells; 7 μM HYPA and 500 μM HD92, 10 μM FeSO4, ~20 hours, relative to HD92 control): combinatory cytotoxic effect is profoundly significant
- toxicity of the derivative alone (MTT viability) (MCF7 cells; HD92 CTRL 500 μM, ~20 hours): sub-toxic but very near the margins of chemical toxicity

Compound: NCC(=O)CCC(=O)O [Compound 5-ALA, 5-aminolevulinic acid, reference compound]
- efficiency of photosensitizer in producing LUMIBLAST effects (U87 cells; 2 mM 5-ALA with 500 μM HD92 in U87, compared with HYPA in MCF7 with FeSO4): less efficient in producing LUMIBLAST effects than HYPA

Compound: O=c1[nH][nH]c(=O)c2c(NCCCCCC[P+](c3ccccc3)(c3ccccc3)c3ccccc3)cccc12.[I-] [DZ167, (6-((1,4-dioxo-1,2,3,4-tetrahydrophthalazin-5-yl)amino)hexyl)triphenylphosphonium iodide]
- LUMIBLAST effect (MTT viability) (U87 cells; U87, 200 μM DZ167, 5 μM HYPA and 50 μM CuSO4, ~20 hours): synergistic effect

Compound: O=c1[nH][nH]c(=O)c2c(NCCCCCCCCCC[P+](c3ccccc3)(c3ccccc3)c3ccccc3)cccc12.[I-] [DZ168, (10-((1,4-dioxo-1,2,3,4-tetrahydrophthalazin-5-yl)amino)decyl)triphenylphosphonium iodide]
- toxicity (MTT viability) (U87 cells; U87, 3 μM HYPA + DZ168 5-30 μM, 100 μM CuSO4, ~20 hours): not affected
- toxicity (MTT viability) (MCF7 cells; 3 μM HYPA + DZ168 5-30 μM, 100 μM CuSO4, ~20 hours): enhanced toxicity

Compound: O=c1[nH][nH]c(=O)c2c(NCCOCCOCC[P+](c3ccccc3)(c3ccccc3)c3ccccc3)cccc12.[I-] [DZ196, (2-(2-(2-((1,4-dioxo-1,2,3,4-tetrahydrophthalazin-5-yl)amino)ethoxy)ethoxy)ethyl)triphenylphosphonium iodide]
- LUMIBLAST effect (MTT viability) (U87 cells; U87, 3 μM cercosporin + DZ196 500 μM, without Cu): smaller effect

Compound: O=c1[nH][nH]c(=O)c2c(NCCC[P+](c3ccccc3)(c3ccccc3)c3ccccc3)cccc12.[I-] [DZ203, (3-((1,4-dioxo-1,2,3,4-tetrahydrophthalazin-5-yl)amino)propyl)triphenylphosphonium iodide]
- LUMIBLAST effect (MTT viability) (U87 cells; U87, 3 μM cercosporin + DZ203 200 μM, 24 hours, presence of Cu (150 μM)): very profound effect
- LUMIBLAST effect (MTT viability) [1]: substantial synergy

Compound: Nc1cccc2c(=O)[nH][nH]c(=O)c12 [luminol]
- cytotoxicity (cells): 95%
